The text below walks through data of patent US20260234157A1, “COMPOUND AND METHOD FOR TARGETED DEGRADATION OF ANDROGEN RECEPTOR” (Gan & Lee Pharmaceuticals Co., Ltd., priority 2023, published 2026).

Format in all cases: cell-based
Experiment [1] has as its target T1, AR protein (Homo sapiens, UniProt P10275).
T1 construct: degradation activity of the compounds disclosed in the present disclosure on AR protein in VCaP cells; host or cells: VCaP
T1 sequence (P10275 1-920): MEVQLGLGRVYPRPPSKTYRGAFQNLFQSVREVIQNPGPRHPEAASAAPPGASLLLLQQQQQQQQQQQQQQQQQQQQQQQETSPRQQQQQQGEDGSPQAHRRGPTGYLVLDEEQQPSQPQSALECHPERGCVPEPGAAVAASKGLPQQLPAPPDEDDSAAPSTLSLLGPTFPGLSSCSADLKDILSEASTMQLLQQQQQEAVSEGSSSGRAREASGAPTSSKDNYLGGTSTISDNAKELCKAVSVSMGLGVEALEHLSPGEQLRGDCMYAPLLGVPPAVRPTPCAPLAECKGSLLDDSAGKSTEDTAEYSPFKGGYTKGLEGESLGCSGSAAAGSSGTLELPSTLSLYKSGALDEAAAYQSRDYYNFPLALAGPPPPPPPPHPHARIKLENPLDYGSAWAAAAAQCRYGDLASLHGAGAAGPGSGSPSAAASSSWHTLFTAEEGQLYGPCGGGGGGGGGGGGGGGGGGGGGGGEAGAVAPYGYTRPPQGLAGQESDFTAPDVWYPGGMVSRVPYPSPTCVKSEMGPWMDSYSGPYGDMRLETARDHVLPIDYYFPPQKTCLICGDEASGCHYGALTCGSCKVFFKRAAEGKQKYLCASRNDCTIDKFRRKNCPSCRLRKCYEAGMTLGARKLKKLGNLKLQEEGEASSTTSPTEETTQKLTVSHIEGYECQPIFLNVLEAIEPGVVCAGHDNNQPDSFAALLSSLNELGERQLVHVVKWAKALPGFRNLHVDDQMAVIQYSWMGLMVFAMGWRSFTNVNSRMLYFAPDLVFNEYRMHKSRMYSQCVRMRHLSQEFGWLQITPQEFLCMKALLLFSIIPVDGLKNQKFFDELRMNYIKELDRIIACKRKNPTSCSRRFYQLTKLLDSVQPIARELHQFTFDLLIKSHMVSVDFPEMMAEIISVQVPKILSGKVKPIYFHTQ
The experiment is described as follows: Degradation of AR protein in VCaP cells (Western blot). To be noted: 8 hours; for inhibition at 0.01 µM: compound at 10 nM, read-out: Degradation rate of the AR protein in VCaP cells, 10 nM (%); for inhibition at 0.1 µM: compound at 100 nM, read-out: Degradation rate of the AR protein in VCaP cells, 100 nM (%). A digest of the protocol:
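Western blot readout: AR band grayscale normalised to GAPDH, used to derive degradation rate. Lysates came from VCaP cells exposed to compound for 8 h, with solvent controls run in parallel.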

Experiment [2] has as its system VCaP cells. The experiment is described as follows: Inhibition of proliferation of VCaP cells (WST-8). The following applies: Homo sapiens, read-out: IC50 for inhibiting the proliferation of VCaP cells. A digest of the protocol: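 Proliferation was read by WST-8 on day nine. Cells were VCaP FGC, seeded at 15000 cells per well in 10% FBS DMEM and kept at 37° C with 5% CO2.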
Background: Tetrazolium dyes change colour on reduction, which living cells bring about.

Experiment [3] has as its target T2, AR protein (Homo sapiens, UniProt P10275, T878A).
T2 construct: degradation activity of the compounds disclosed in the present disclosure on AR protein in LNCaP cells; host or cells: LNCaP FGC
T2 sequence (P10275 1-920 T878A): T1 sequence (P10275 1-920) with T878A
The experiment is described as follows: Degradation of AR protein in LNCaP cells (Western blot). The following applies: for inhibition at 0.01 µM: read-out: Degradation rates of the AR protein in LNCaP cells, 10 nM (%); for inhibition at 0.1 µM: read-out: Degradation rates of the AR protein in LNCaP cells, 100 nM (%). The essentials:
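Percent AR degradation was derived from GAPDH-normalised Western blot band intensities (infrared detection) in LNCaP lysates.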

For experiment [4], the system named is LNCaP FGC cells. The experiment is described as follows: Inhibition of proliferation of LNCaP cells (WST-8). To be noted: Homo sapiens, LNCaP, 96 h. As to the method:
The cells were cultured in a cell culture incubator with 5% CO2 at 37° C. overnight. […] On the sixth day, 96 well plates were taken out, and 20 μL of WST-8 (Beytime, C0040) reagent was added to each well.

Each structure is given as a SMILES string. Numbering of substitutions follows the chain as printed. Read-outs that look alike come from different tables or passages of the source.

Consider `N#Cc1ccc(O[C@H]2CC[C@H](NC(=O)c3ccc(N4CC(N5CCC6(CCc7cc8c(cc7O6)C(=O)N(C6CCC(=O)NC6=O)C8=O)CC5)C4)nn3)CC2)cc1Cl` (stereo partly drawn) [Compound 25], for which the inhibition at 0.01 µM in experiment [1] was 13%; in experiment [3] (LNCaP, 8 h), 49%. In addition, the inhibition at 0.1 µM in experiment [1] is 32%; in experiment [3] (LNCaP, 8 h) it was 43%. Moreover, the IC50 came to 910 nM in experiment [2] (VCaP, 168 h) and 390 nM in experiment [4] (read-out: IC50 for inhibiting the proliferation of LNCaP cells, LNCaP FGC cells, 96 hours, WST-8 absorbance at 450 nm).

In the case of `CC1(CN2CCC3(CCc4cc5c(cc4O3)C(=O)N(C3CCC(=O)NC3=O)C5=O)CC2)CCN(c2ccc(C(=O)N[C@H]3CC[C@H](Oc4ccc(C#N)c(Cl)c4)CC3)nn2)CC1` (stereo partly drawn) [Compound 17], the inhibition at 0.01 µM in experiment [1] was determined as 39%; in experiment [3] (LNCaP cells, compound 10 nM, 8 hours, Western blot grayscale, GAPDH internal reference), 35%. For the same molecule, the inhibition at 0.1 µM in experiment [1] stood at 80%; in experiment [3] (LNCaP cells, compound 100 nM, 8 hours, Western blot grayscale, GAPDH internal reference), 65%. Also, the IC50 in experiment [2] (VCaP cells, 168 hours, WST-8 absorbance at 450 nm) turned out to be 580 nM; in experiment [4] (LNCaP FGC cells, 96 hours, WST-8 absorbance at 450 nm, read-out: IC50 for inhibiting the proliferation of LNCaP cells), 800 nM.
